From ChEMBL document CHEMBL5523766 (J Med Chem, 2024)

Assays:
[1] = Tmax in BALB/c mouse at 75 mg/kg,po measured upto 24 hrs by LC-MS/MS analysis; format: ADME, organism-based; conditions: in vivo
[2] = Brain to plasma ratio in ICR mouse at 50 mg/kg,po measured upto 24 hrs by LC-MS/MS analysis; format: ADME, organism-based
DLD-1 = test: Antiproliferative activity against human DLD-1 cells assessed as inhibition of cell growth incubated for 72 hrs by MTS assay; format: functional, cell-based; conditions: DLD-1, 72 h
OCI-Ly10 = test: Antiproliferative activity against human OCI-Ly10 cells assessed as inhibition of cell growth incubated for 72 hrs by MTS assay; format: functional, cell-based; conditions: OCI-Ly10, 72 h
Granta-519 [3] = test: Antiproliferative activity against human Granta-519 cells assessed as inhibition of cell growth incubated for 72 hrs by MTS assay; format: functional, cell-based; conditions: Granta-519, 72 h
Granta-519 [4] = test: Induction of apoptosis in human Granta-519 cells assessed as early apoptotic cells at 2000 nM incubated for 48 hrs by Annexin-V-FITC/propidium iodide staining based flow cytometry (reference value: 3.75 %); format: functional
[5] = Cmax in BALB/c mouse at 75 mg/kg,po measured upto 24 hrs by LC-MS/MS analysis; format: ADME, organism-based; conditions: in vivo
SUD4 = test: Antiproliferative activity against human SU-DHL-4 cells assessed as inhibition of cell growth incubated for 72 hrs by MTS assay; format: functional, cell-based; conditions: SU-DHL-4, 72 h
CAPAN-1 = test: Antiproliferative activity against human CAPAN-1 cells assessed as inhibition of cell growth incubated for 72 hrs by MTS assay; format: functional, cell-based; conditions: CAPAN-1, 72 h
LoVo = test: Antiproliferative activity against human LoVo cells assessed as inhibition of cell growth incubated for 72 hrs by MTS assay; format: functional, cell-based
HT-29 = test: Antiproliferative activity against human HT-29 cells assessed as inhibition of cell growth incubated for 72 hrs by MTS assay; format: functional, cell-based; conditions: HT-29, 72 h
NCI-H446 = test: Antiproliferative activity against human NCI-H446 cells assessed as inhibition of cell growth incubated for 72 hrs by MTS assay; format: functional, cell-based; conditions: NCI-H446, 72 h
Granta-519 [6] = test: Induction of apoptosis in human Granta-519 cells assessed as necrotic cells at 2000 nM incubated for 48 hrs by Annexin-V-FITC/propidium iodide staining based flow cytometry (reference value: 0.429 %); format: functional
Granta-519 [7] = test: Induction of cell cycle arrest in human Granta-519 cells assessed as accumulation of cells at S phase at 2000 nM incubated for 24 hrs by propidium iodide staining based flow cytometry (reference value: 44.81 %); format: functional
PC-3 = test: Antiproliferative activity against human PC-3 cells assessed as inhibition of cell growth incubated for 72 hrs by MTS assay; format: functional, cell-based; conditions: PC-3, 72 h
Granta-519 [8] = test: Induction of cell cycle arrest in human Granta-519 cells assessed as accumulation of cells at G1 phase at 2000 nM incubated for 24 hrs by propidium iodide staining based flow cytometry (reference value: 45.83 %); format: functional
[9] = Half life in BALB/c mouse at 75 mg/kg,po measured upto 24 hrs by LC-MS/MS analysis; format: ADME, organism-based; conditions: in vivo
Granta-519 [10] = test: Induction of apoptosis in human Granta-519 cells assessed as late apoptotic cells at 2000 nM incubated for 48 hrs by Annexin-V-FITC/propidium iodide staining based flow cytometry (reference value: 3.07 %); format: functional
Granta-519 [11] = test: Induction of apoptosis in human Granta-519 cells assessed as viable cells at 2000 nM incubated for 48 hrs by Annexin-V-FITC/propidium iodide staining based flow cytometry (reference value: 92.7 %); format: functional; conditions: read-out: Activity
[12] = AUCinfinity in BALB/c mouse at 75 mg/kg,po measured upto 24 hrs by LC-MS/MS analysis; format: ADME, organism-based; conditions: in vivo
HCT-116 = test: Antiproliferative activity against human HCT-116 cells assessed as inhibition of cell growth incubated for 72 hrs by MTS assay; format: functional, cell-based; conditions: HCT-116, 72 h
A2780 = test: Antiproliferative activity against human A2780 cells assessed as inhibition of cell growth incubated for 72 hrs by MTS assay; format: functional, cell-based; conditions: A2780, 72 h

Tmax [1]: 0.25 h | BPR [2]: 6.6% | IC50 (DLD-1): 5.28 µM | IC50 (OCI-Ly10): 0.52 µM | Cmax [5]: 12000 ng/mL | IC50 (LoVo): 1.14 µM | IC50 (HT-29): 2.59 µM | IC50 (NCI-H446): 1.96 µM | IC50 (PC-3): 11.3 µM | half-life [9]: 1.93 h | AUC(0-inf) [12]: 41600 ng·h/mL | IC50 (HCT-116): 1.12 µM | IC50 (A2780): 0.62 µM
SMILES: C[C@@H]1COCCN1c1cc(C2([S@](C)(=N)=O)CC2)nc(-c2cc[nH]c3nccc2-3)n1 [CERALASERTIB]
IC50 (Granta-519 [3]): 0.55 µM | Activity (Granta-519 [4]): 8.66% | IC50 (SUD4): 2.26 µM | IC50 (CAPAN-1): 5.54 µM | Activity (Granta-519 [6]): 3.07% | Activity (Granta-519 [7]): 67.69% | Activity (Granta-519 [8]): 30.16% | Activity (Granta-519 [10]): 10.3% | viability at 2 µM (Granta-519 [11]): 78%
